Activity calls are given as the source filed them. No cut-off for these calls is given here.
Tests used:
[1] = molecular target: T1, N-glycosylase/DNA lyase (Homo sapiens, UniProt O15527); test: Inhibition of human OGG1 assessed as reduction in free 8-oxo-Gua release using gamma-irradiated calf thymus DNA substrate incubated for 1 hr by GC-MS/MS assay
[2] = molecular target: T2, Endonuclease III-like protein 1 (Homo sapiens) (UniProt P78549); test: Inhibition of NTH1 (unknown origin) assessed as remaining enzyme activity at 50 uM incubated for 40 mins by TAMRA fluorescence-based assay
T2 sequence (whole entry): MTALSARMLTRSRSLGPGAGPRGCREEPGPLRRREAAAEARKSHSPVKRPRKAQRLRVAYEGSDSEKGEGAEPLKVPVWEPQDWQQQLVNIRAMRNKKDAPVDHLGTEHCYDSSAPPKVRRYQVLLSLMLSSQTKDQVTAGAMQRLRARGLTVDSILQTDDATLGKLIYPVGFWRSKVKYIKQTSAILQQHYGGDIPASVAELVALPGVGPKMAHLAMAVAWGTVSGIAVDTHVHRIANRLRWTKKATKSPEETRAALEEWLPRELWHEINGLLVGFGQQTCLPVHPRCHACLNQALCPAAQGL

[3] = molecular target: T3, Endonuclease 8-like 1 (Homo sapiens, UniProt Q96FI4); test: Inhibition of NEIL1 (unknown origin) assessed as remaining enzyme activity at 50 uM using Sp/Gh substrate incubated for 40 mins by TAMRA fluorescence-based assay
[4] = molecular target: T1, N-glycosylase/DNA lyase; test: Inhibition of human OGG1 assessed as reduction in AP lyase activity using AP-containing substrate
[5] = molecular target: T1, N-glycosylase/DNA lyase; test: Inhibition of human OGG1 assessed as reduction in free Inhibition of human OGG1 assessed as reduction in free FapyGua release using gamma-irradiated calf thymus DNA substrate incubated for 1 hr by GC-MS/MS assay
[6] = molecular target: T2, Endonuclease III-like protein 1 (Homo sapiens); test: Inhibition of NTH1 (unknown origin) assessed as effect on DNA lesions per 10^6 DNA bases using 5-hydroxycytosine substrate incubated for 1 hr by GC-MS/MS assay
[7] = molecular target: T4, Formamidopyrimidine-DNA glycosylase (Escherichia coli (strain K12), UniProt P05523); test: Inhibition of Escherichia coli FPG using 8-oxo-Gua substrate incubated for 10 mins by TAMRA fluorescence-based assay
T4 sequence (P05523 whole entry): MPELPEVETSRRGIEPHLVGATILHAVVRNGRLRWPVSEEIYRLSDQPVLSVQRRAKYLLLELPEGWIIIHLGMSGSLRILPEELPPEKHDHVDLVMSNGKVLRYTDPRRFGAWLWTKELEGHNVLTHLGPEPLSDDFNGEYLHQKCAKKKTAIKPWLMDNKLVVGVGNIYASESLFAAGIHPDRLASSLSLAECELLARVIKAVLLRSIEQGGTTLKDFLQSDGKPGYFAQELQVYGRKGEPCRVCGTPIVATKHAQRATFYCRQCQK

[8] = Binding affinity to duplex DNA (unknown origin) assessed as induction of DNA intercalation at 50 uM incubated for 30 mins by gel electrophoresis
[9] = molecular target: T1, N-glycosylase/DNA lyase; test: Inhibition of human OGG1 binding to 8-oxo-Gua substrate using compound pre-incubated with enzyme for 5 to 10 mins before substrate addition and further incubated for 5 mins by native gel electrophoresis based by gel-shift assay
[10] = molecular target: T3, Endonuclease 8-like 1; test: Inhibition of NEIL1 (unknown origin) assessed as effect on DNA lesions per 10^6 DNA bases using FapyAde substrate incubated for 1 hr by GC-MS/MS assay
[11] = molecular target: T2, Endonuclease III-like protein 1 (Homo sapiens); test: Inhibition of NTH1 (unknown origin) assessed as effect on DNA lesions per 10^6 DNA bases using FapyAde substrate incubated for 1 hr by GC-MS/MS assay
[12] = species on record: Homo sapiens; test: Selectivity index, ratio of IC50 for inhibition of NEIL1 (unknown origin) using Sp/Gh substrate incubated for 40 mins by TAMRA fluorescence-based assay to IC50 for inhibition of human OGG1 incubated for 30 mins using 8-oxo-Gua-containing substrate by TAMRA fluorescence-based assay
[13] = molecular target: T5, Formamidopyrimidine-DNA glycosylase (Escherichia coli (strain K12)) (UniProt P05523); test: Inhibition of Escherichia coli FPG assessed as reduction in enzyme-mediated incision using compound pre-incubated with AP-site containing DNA substrate for 30 mins at 37 degC followed by enzyme addition
T5 sequence (whole entry): T4 sequence (P05523 whole entry)

[14] = molecular target: T1, N-glycosylase/DNA lyase; test: Inhibition of human OGG1 catalytic activity assessed as reduction trapping of substrates at 10 uM using 8-oxo-Gua substrate in presence of sodium cyno-borohydride by gel electrophoresis method
[15] = Selectivity index, ratio of IC50 for inhibition of Escherichia coli FPG using 8-oxo-Gua substrate incubated for 10 mins by TAMRA fluorescence-based assay to IC50 for inhibition of human OGG1 incubated for 30 mins using 8-oxo-Gua-containing substrate by TAMRA fluorescence-based assay
[16] = molecular target: T1, N-glycosylase/DNA lyase; test: Inhibition of human OGG1 catalytic activity assessed as reduction trapping of substrates using AP site containing substrate by measuring concentration of compound needed to reduce borohydride trapping by 50% in presence of sodium cyno-borohydride by gel electrophoresis method
[17] = molecular target: T5, Formamidopyrimidine-DNA glycosylase (Escherichia coli (strain K12)); test: Inhibition of Escherichia coli FPG assessed as remaining enzyme activity at 50 uM using 8-oxo-Gua substrate incubated for 10 mins by TAMRA fluorescence-based assay
[18] = molecular target: T3, Endonuclease 8-like 1; test: Inhibition of NEIL1 (unknown origin) using Sp/Gh substrate incubated for 40 mins by TAMRA fluorescence-based assay
[19] = molecular target: T3, Endonuclease 8-like 1; test: Inhibition of NEIL1 (unknown origin) assessed as effect on DNA lesions per 10^6 DNA bases using 5-OH-5-MeHyd substrate incubated for 1 hr by GC-MS/MS assay
[20] = molecular target: T3, Endonuclease 8-like 1; test: Inhibition of NEIL1 (unknown origin) assessed as effect on DNA lesions per 10^6 DNA bases using FapyGua substrate incubated for 1 hr by GC-MS/MS assay
[21] = molecular target: T1, N-glycosylase/DNA lyase; test: Inhibition of human OGG1 catalytic activity assessed as reduction trapping of substrates using 8-oxo-Gua substrate by measuring concentration of compound needed to reduce borohydride trapping by 50% in presence of sodium cyno-borohydride by gel electrophoresis method
[22] = molecular target: T2, Endonuclease III-like protein 1 (Homo sapiens); test: Inhibition of NTH1 (unknown origin) assessed as effect on DNA lesions per 10^6 DNA bases using 5-OH-5-MeHyd substrate incubated for 1 hr by GC-MS/MS assay
[23] = molecular target: T6, Endonuclease III-like protein 1 (Homo sapiens, UniProt P78549); test: Inhibition of NTH1 (unknown origin) incubated for 40 mins by TAMRA fluorescence-based assay
T6 sequence (P78549 whole entry): T2 sequence (whole entry)

[24] = molecular target: T1, N-glycosylase/DNA lyase; test: Inhibition of human OGG1 catalytic activity assessed as reduction trapping of substrates at 10 uM using AP site containing substrate in presence of sodium cyno-borohydride by gel electrophoresis method
[25] = species on record: Homo sapiens; test: Selectivity index, ratio of IC50 for inhibition of NTH1 (unknown origin) incubated for 40 mins by TAMRA fluorescence-based assay to IC50 for inhibition of human OGG1 incubated for 30 mins using 8-oxo-Gua-containing substrate by TAMRA fluorescence-based assay
[26] = molecular target: T1, N-glycosylase/DNA lyase; test: Inhibition of human OGG1 assessed as protection against NaOH-mediated strand cleavage using AP-containing substrate; set-up: scale not given: the % may be the effect or the level left
[27] = molecular target: T2, Endonuclease III-like protein 1 (Homo sapiens); test: Inhibition of NTH1 (unknown origin) assessed as effect on DNA lesions per 10^6 DNA bases using thymine glycol substrate incubated for 1 hr by GC-MS/MS assay
[28] = molecular target: T5, Formamidopyrimidine-DNA glycosylase (Escherichia coli (strain K12)); test: Inhibition of Escherichia coli FPG assessed as reduction in enzyme-mediated incision using compound pre-incubated with 8-oxo-Gua substrate for 30 mins at 37 degC followed by enzyme addition
[29] = molecular target: T2, Endonuclease III-like protein 1 (Homo sapiens); test: Inhibition of NTH1 (unknown origin) assessed as effect on DNA lesions per 10^6 DNA bases using FapyGua substrate incubated for 1 hr by GC-MS/MS assay
[30] = molecular target: T1, N-glycosylase/DNA lyase; conditions: 0.08 to 8 uM
Description: Inhibition of human OGG1 at 0.08 to 8 uM incubated for 30 mins using 8-oxo-Gua-containing substrate by PAGE-based cleavage assay

T1 sequence (O15527 whole entry): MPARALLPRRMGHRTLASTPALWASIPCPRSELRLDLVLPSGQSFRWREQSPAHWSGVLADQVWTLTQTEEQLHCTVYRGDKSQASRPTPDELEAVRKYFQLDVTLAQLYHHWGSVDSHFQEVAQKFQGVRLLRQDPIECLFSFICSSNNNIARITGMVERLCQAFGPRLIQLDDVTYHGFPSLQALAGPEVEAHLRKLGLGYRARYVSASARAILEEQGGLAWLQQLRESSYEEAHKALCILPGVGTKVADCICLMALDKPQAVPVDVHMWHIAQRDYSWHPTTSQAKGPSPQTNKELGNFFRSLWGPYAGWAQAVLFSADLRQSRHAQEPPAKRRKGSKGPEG
T3 sequence (Q96FI4 whole entry): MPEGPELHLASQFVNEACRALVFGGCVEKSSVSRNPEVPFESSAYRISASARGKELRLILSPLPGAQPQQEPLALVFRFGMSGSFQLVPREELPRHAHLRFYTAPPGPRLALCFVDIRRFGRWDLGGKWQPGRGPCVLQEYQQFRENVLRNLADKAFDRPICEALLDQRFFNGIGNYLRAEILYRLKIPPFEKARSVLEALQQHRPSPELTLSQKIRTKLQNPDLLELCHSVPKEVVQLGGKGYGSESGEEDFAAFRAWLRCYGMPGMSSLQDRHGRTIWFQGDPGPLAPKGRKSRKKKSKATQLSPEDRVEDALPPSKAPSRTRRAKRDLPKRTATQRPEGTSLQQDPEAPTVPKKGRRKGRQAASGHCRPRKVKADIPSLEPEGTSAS

Cc1cc(C(=O)NNCc2ccccc2)no1
inhibition [1]: inactive
Activity [2]: 105%
Activity [3]: 93.3%
inhibition [4]: inactive
inhibition [5]: inactive

NNC(=O)c1sc2cccc(Cl)c2c1Cl
inhibition [6]: inactive
IC50 [7]: > 50 µM
Activity [8]: inactive
inhibition [9]: inactive
inhibition [10]: inactive
inhibition [11]: inactive
Ratio IC50 [12]: > 200
inhibition [13]: inactive
inhibition [1]: Active
inhibition [14]: Active
Ratio IC50 [15]: > 200
IC50 [16]: 0.74 µM
Activity [17]: 91.7%
IC50 [18]: > 50 µM
Activity [2]: 63.1%
Activity [3]: 84.6%
inhibition [19]: inactive
inhibition [20]: inactive
inhibition [4]: Active
IC50 [21]: 1.03 µM
inhibition [22]: inactive
IC50 [23]: > 50 µM
inhibition [5]: Active
inhibition [24]: Active
Ratio IC50 [25]: > 200
Activity [26]: 2%
inhibition [27]: inactive
inhibition [28]: inactive
inhibition [29]: inactive

O=C(CCNNC(=O)c1ccncc1)NCc1ccccc1
Activity [2]: 108%
Activity [3]: 96.4%

O=C(NN=C1CCCCC1)c1ccc(Br)cc1
inhibition [6]: inactive
IC50 [7]: > 50 µM
Activity [8]: inactive
inhibition [10]: inactive
inhibition [11]: inactive
inhibition [13]: inactive
Activity [17]: 91.7%
IC50 [18]: > 50 µM
Activity [2]: 84.5%
Activity [3]: 97.6%
inhibition [19]: inactive
inhibition [20]: inactive
inhibition [22]: inactive
IC50 [23]: > 50 µM
inhibition [27]: inactive
inhibition [28]: inactive
inhibition [29]: inactive

NNC(=O)c1ccncc1
inhibition [30]: inactive
Ratio IC50 [12]: > 200
inhibition [1]: inactive
inhibition [14]: Active
Ratio IC50 [15]: > 200
Activity [2]: 98%
Activity [3]: 80.6%
inhibition [4]: inactive
inhibition [5]: inactive
inhibition [24]: Active
Ratio IC50 [25]: > 200
Activity [26]: 1%

Cc1cc(OCC(=O)NN)cc(C)c1Cl
Activity [8]: inactive
Activity [17]: 95%
Activity [2]: 75.1%
Activity [3]: 83.7%

O=C(N/N=C/c1ccc(F)cc1)c1sc2ccccc2c1Cl
inhibition [6]: inactive
IC50 [7]: > 50 µM
Activity [8]: inactive
inhibition [10]: inactive
inhibition [11]: inactive
inhibition [13]: inactive
Activity [17]: 81.7%
IC50 [18]: > 50 µM
Activity [2]: 89.2%
Activity [3]: 86.7%
inhibition [19]: inactive
inhibition [20]: inactive
inhibition [22]: inactive
IC50 [23]: > 50 µM
inhibition [27]: inactive
inhibition [28]: inactive
inhibition [29]: inactive

O=C(O)C1=CC(=C(c2ccc(O)c(C(=O)O)c2)c2ccc(O)c(C(=O)O)c2)C=CC1=O
inhibition [9]: Active

NNc1nncc2ccccc12
Activity [26]: 64%

COc1cc(C)c(S(=O)(=O)n2cc(C)nc2-c2ccccc2)cc1C
Activity [8]: inactive
Activity [2]: 109%
Activity [3]: 100%

C/C(=N\NC(=O)c1cc2ccccc2cc1O)c1ccc2c(c1)OCO2
Activity [8]: inactive
Activity [2]: 73%
Activity [3]: 52%

CC1CCCC/C1=N/NC(=O)c1sc2ccccc2c1Cl (stereo not drawn)
inhibition [6]: inactive
IC50 [7]: > 50 µM
Activity [8]: inactive
inhibition [10]: inactive
inhibition [11]: inactive
inhibition [13]: inactive
Activity [17]: 87.3%
IC50 [18]: > 50 µM
Activity [2]: 94.8%
Activity [3]: 82.3%
inhibition [19]: inactive
inhibition [20]: inactive
inhibition [22]: inactive
IC50 [23]: > 50 µM
inhibition [27]: inactive
inhibition [28]: inactive
inhibition [29]: inactive

NNC(=O)COc1cccc2ccccc12
Activity [8]: inactive
Activity [17]: 88.5%
Activity [2]: 53.6%
Activity [3]: 78.7%

CC(Oc1cccc(Cl)c1)C(=O)NN (stereo not drawn)
Activity [8]: inactive
Activity [17]: 90.8%
Activity [2]: 100%
Activity [3]: 95.3%

C=CCC/C(C)=N\NC(=O)c1cccc(Br)c1
Activity [8]: inactive
Activity [17]: 78.8%
Activity [2]: 90.6%
Activity [3]: 93.5%

O=C(NN=C1CCCCC1)c1cc2ccccc2cc1O
inhibition [6]: inactive
IC50 [7]: > 50 µM
Activity [8]: inactive
inhibition [9]: inactive
inhibition [10]: inactive
inhibition [11]: inactive
Ratio IC50 [12]: > 200
inhibition [13]: inactive
inhibition [1]: Active
inhibition [14]: Active
Ratio IC50 [15]: > 200
Activity [17]: 77%
IC50 [18]: > 50 µM
Activity [2]: 83%
Activity [3]: 87.4%
inhibition [19]: inactive
inhibition [20]: inactive
inhibition [4]: Active
inhibition [22]: inactive
IC50 [23]: > 50 µM
inhibition [5]: Active
inhibition [24]: Active
Ratio IC50 [25]: > 200
Activity [26]: 10%
inhibition [27]: inactive
inhibition [28]: inactive
inhibition [29]: inactive

CC[n+]1c(-c2ccccc2)c2cc(N)ccc2c2ccc(N)cc21
Activity [8]: Active

CCCN1CCC(=NNC(=O)c2ccc(Cl)cc2Cl)CC1
Activity [8]: inactive
Activity [2]: 96.1%
Activity [3]: 91.2%

CCCC/C(C)=N\NC(=O)c1cccc(Br)c1
Activity [8]: inactive
Activity [17]: 90.9%
Activity [2]: 92.6%
Activity [3]: 101%
